Assays:
Type in all cases: biochemical
human Yes1 enzyme = molecular target: T1, human Yes1 enzyme (Homo sapiens, UniProt P07947); experiment: Yes1 enzyme inhibitory activity (time-resolved fluorometry, biotinylated peptide phosphorylation); conditions: read-out: YES_IC50
T1 construct: made in house
How it was run: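 Inhibition was expressed against a compound-free control to give IC50, using TR-FRET read-out (Eu-cryptate anti-pTyr antibody, streptavidin-XL665).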

human Lck enzyme = molecular target: T2, human Lck enzyme (Homo sapiens, UniProt P06239); experiment: Lck enzyme inhibitory activity (time-resolved fluorometry, biotinylated peptide phosphorylation); conditions: read-out: LCK_IC50
T2 construct: purchased Carna Biosciences, Inc. 08-170
T2 sequence (P06239 whole entry): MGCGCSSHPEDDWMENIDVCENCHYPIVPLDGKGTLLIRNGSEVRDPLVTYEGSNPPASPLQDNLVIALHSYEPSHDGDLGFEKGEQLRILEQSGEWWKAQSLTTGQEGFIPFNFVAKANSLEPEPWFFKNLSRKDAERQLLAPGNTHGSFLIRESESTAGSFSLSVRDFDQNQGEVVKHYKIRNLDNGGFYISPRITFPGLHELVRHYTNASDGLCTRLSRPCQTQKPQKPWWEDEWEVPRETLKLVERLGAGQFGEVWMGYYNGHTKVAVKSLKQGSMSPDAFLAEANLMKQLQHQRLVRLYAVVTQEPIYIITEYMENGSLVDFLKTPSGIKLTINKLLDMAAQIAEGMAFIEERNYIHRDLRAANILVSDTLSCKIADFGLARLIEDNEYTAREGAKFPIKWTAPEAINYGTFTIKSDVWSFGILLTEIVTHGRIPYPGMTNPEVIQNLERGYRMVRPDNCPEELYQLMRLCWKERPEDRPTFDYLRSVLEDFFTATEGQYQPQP
How it was run: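 Readout pairs a europium cryptate-labelled anti-phosphotyrosine antibody with XL665-streptavidin, measured by time-resolved fluorescence. IC50 derived from percent inhibition against untreated controls.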

human Src enzyme = molecular target: T3, human Src enzyme (Homo sapiens, UniProt P12931); experiment: Src enzyme inhibitory activity (time-resolved fluorometry, biotinylated peptide phosphorylation); conditions: read-out: SRC_IC50
T3 construct: purchased Carna Biosciences, Inc. 08-173
T3 sequence (P12931 whole entry): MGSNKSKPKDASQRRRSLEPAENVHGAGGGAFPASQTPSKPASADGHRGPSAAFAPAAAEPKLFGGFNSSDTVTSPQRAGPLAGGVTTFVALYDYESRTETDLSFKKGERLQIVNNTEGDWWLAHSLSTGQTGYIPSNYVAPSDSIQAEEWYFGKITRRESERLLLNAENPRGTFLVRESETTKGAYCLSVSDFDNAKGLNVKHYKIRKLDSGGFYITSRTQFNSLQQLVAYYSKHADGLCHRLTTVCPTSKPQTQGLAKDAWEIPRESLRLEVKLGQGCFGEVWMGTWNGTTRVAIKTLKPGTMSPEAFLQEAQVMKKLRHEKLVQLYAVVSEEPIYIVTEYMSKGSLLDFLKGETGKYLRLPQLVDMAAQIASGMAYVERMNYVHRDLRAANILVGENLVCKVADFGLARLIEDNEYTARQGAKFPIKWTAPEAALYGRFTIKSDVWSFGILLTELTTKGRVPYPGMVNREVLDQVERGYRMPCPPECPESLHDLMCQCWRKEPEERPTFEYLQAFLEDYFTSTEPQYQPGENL
How it was run: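 Compounds were tested for blocking tyrosine phosphorylation of a biotinylated peptide substrate by recombinant human Src. Phosphorylated product was quantified by time-resolved fluorometry using europium cryptate and XL665 conjugates, and IC50 was calculated against the compound-free control.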

T1 sequence (P07947 whole entry): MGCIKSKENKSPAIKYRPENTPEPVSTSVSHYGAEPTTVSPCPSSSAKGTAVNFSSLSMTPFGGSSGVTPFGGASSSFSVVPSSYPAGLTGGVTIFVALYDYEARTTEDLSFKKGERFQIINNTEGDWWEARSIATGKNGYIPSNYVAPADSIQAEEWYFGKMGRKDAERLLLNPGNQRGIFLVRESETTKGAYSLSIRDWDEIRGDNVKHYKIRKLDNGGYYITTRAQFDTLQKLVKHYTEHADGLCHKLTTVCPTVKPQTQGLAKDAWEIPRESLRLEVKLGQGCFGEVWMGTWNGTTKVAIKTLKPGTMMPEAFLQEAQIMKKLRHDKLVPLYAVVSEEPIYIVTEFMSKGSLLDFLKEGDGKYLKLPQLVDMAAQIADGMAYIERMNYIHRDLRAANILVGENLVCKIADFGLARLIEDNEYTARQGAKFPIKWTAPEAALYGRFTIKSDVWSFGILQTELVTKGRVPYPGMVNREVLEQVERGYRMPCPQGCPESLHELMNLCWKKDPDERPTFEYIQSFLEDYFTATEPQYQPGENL

| IC50 (human Yes1 enzyme) | IC50 (human Lck enzyme) | IC50 (human Src enzyme) | Compound |
| --- | --- | --- | --- |
| 1.6 nM | 7.1 nM | 16 nM | COC(=O)[C@H](Cc1cnc[nH]1)NC(=O)Nc1cc2[nH]c(C(=O)c3cnn(-c4ccc(Oc5ccccc5F)cc4C)c3N)cc2cc1OCC(F)F [Example 5-1-246, Methyl (2S)-2-[[2-[5-amino-1-[4-(2-fluorophenoxy)-2-methylphenyl]pyrazole-4-carbonyl]-5-(2,2-difluoroethoxy)-1H-indol-6-yl]carbamoylamino]-3-(1H-imidazol-5-yl) propanoate] |
| 2.1 nM | 34 nM | 120 nM | Cc1cc(-n2ncc(C(=O)c3cc4cc(OC5CCN(C(C)C)CC5)c(C5CCOCC5)cc4[nH]3)c2N)ccc1Oc1ccccc1F [Example 5-1-247, (5-amino-1-(4-(2-fluorophenoxy)-3-methylphenyl)-1H-pyrazol-4-yl)(5-((1-isopropylpiperidin-4-yl)oxy)-6-(tetrahydro-2H-pyran-4-yl)-1H-indol-2-yl)methanone] |
| 0.97 nM | 4.7 nM | 7.9 nM | Cc1cc(Oc2c(F)cccc2F)ncc1-n1ncc(C(=O)c2cc3cc(OC4CCN(C(C)C)CC4)c(C4CCOCC4)cc3[nH]2)c1N [Example 5-1-248, [5-amino-1-[6-(2,6-difluorophenoxy)-4-methylpyridin-3-yl]pyrazol-4-yl]-[6-(oxan-4-yl)-5-(1-propan-2-ylpiperidin-4-yl)oxy-1H-indol-2-yl]methanone] |
| 0.77 nM | 3.7 nM | 7.4 nM | Cc1cc(Oc2c(F)cccc2F)ncc1-n1ncc(C(=O)c2cc3cc(OC4CCN(C(C)C)CC4)c(-c4cnn(C)c4)cc3[nH]2)c1N [Example 5-1-249, [5-amino-1-[6-(2,6-difluorophenoxy)-4-methylpyridin-3-yl]pyrazol-4-yl]-[6-(1-methylpyrazol-4-yl)-5-(1-propan-2-ylpiperidin-4-yl)oxy-1H-indol-2-yl]methanone] |
| 0.76 nM | 2.8 nM | 7.5 nM | Cc1cc(Oc2ccccc2F)ccc1-n1ncc(C(=O)c2cc3cc(OCC(F)F)c(N4C(=O)[C@@H]5C[C@@H](O)CN5C4=O)cc3[nH]2)c1N [Example 5-1-250] |
| 3.8 nM | 15 nM | 25 nM | Cc1cc(Oc2ccccc2F)ccc1-n1ncc(C(=O)c2cc3cc(OCC(F)F)c(N4C(=O)N[C@@H](Cc5ccc(O)cc5)C4=O)cc3[nH]2)c1N [Example 5-1-251, (5S)-3-[2-[5-amino-1-[4-(2-fluorophenoxy)-2-methylphenyl]pyrazole-4-carbonyl]-5-(2,2-difluoroethoxy)-1H-indol-6-yl]-5-[(4-hydroxyphenyl)methyl]imidazolidine-2,4-dione] |
| 1.2 nM | 4.6 nM | 14 nM | Cc1cc(Oc2ccccc2F)ccc1-n1ncc(C(=O)c2cc3cc(OCC(F)F)c(N4C(=O)[C@@H]5CCCN5C4=O)cc3[nH]2)c1N [Example 5-1-252, (7aS)-2-[2-[5-amino-1-[4-(2-fluorophenoxy)-2-methylphenyl]pyrazole-4-carbonyl]-5-(2,2-difluoroethoxy)-1H-indol-6-yl]-5,6,7,7a-tetrahydropyrrolo[1,2-c]imidazole-1,3-dione] |
| 0.33 nM | 46 nM | 23 nM | Cc1cc(Oc2ccccc2F)ccc1-n1ncc(C(=O)c2cc3cc(OCC(F)F)c(N4C(=O)[C@@H]5C[C@H](NC(=O)OCC6c7ccccc7-c7ccccc76)CN5C4=O)cc3[nH]2)c1N [Example 5-1-253, 9H-fluoren-9-ylmethyl N-[(6S,7aS)-2-[2-[5-amino-1-[4-(2-fluorophenoxy)-2-methylphenyl]pyrazole-4-carbonyl]-5-(2,2-difluoroethoxy)-1H-indol-6-yl]-1,3-dioxo-5,6,7,7a-tetrahydropyrrolo[1,2-c]imidazol-6-yl] carbamate] |
| 1.1 nM | 4.5 nM | 8.9 nM | Cc1cc(Oc2ccccc2F)ccc1-n1ncc(C(=O)c2cc3cc(OCC(F)F)c(N4C(=O)[C@@H]5C[C@H](NS(=O)(=O)CCCF)CN5C4=O)cc3[nH]2)c1N [Example 5-1-255, N-[(6S,7aS)-2-[2-[5-amino-1-[4-(2-fluorophenoxy)-2-methylphenyl]pyrazole-4-carbonyl]-5-(2,2-difluoroethoxy)-1H-indol-6-yl]-1,3-dioxo-5,6,7,7a-tetrahydropyrrolo[1,2-c]imidazol-6-yl]-3-fluoropropane-1-sulfonamide] |
| 40 nM | 95 nM | 250 nM | Cc1cc(Oc2c(F)cccc2F)ncc1-n1ncc(C(=O)c2cc3cc(OCC(F)F)c(-c4cccs4)cc3[nH]2)c1N [Example 5-1-257, [5-amino-1-[6-(2,6-difluorophenoxy)-4-methylpyridin-3-yl]pyrazol-4-yl]-[5-(2,2-difluoroethoxy)-6-thiophen-2-yl-1H-indol-2-yl] methanone] |
| 18 nM | 720 nM | 2900 nM | Cc1cc(-n2ncc(C(=O)c3cc4cc(OCC(F)F)c(C5CCOCC5)cc4[nH]3)c2N)ccc1Oc1ccccc1F [Example 5-1-258, [5-amino-1-[4-(2-fluorophenoxy)-3-methylphenyl]pyrazol-4-yl]-[5-(2,2-difluoroethoxy)-6-(oxan-4-yl)-1H-indol-2-yl] methanone] |
| 7.5 nM | 25 nM | 50 nM | Cc1cc(Oc2c(F)cccc2F)ncc1-n1ncc(C(=O)c2cc3cc(OCC(F)F)c(C4CCOCC4)cc3[nH]2)c1N [Example 5-1-259, [5-amino-1-[6-(2,6-difluorophenoxy)-4-methylpyridin-3-yl]pyrazol-4-yl]-[5-(2,2-difluoroethoxy)-6-(oxan-4-yl)-1H-indol-2-yl] methanone] |
| 8.5 nM | 44 nM | 61 nM | Cc1cc(Oc2ccccc2F)ccc1-n1ncc(C(=O)c2cc3cc(C(C)C)c(Br)cc3[nH]2)c1N [Example 5-1-260, [5-amino-1-[4-(2-fluorophenoxy)-2-methylphenyl]pyrazol-4-yl]-(6-bromo-5-propan-2-yl-1H-indol-2-yl)methanone] |
| 7.9 nM | 200 nM | 390 nM | Cc1cc(-n2ncc(C(=O)c3cc4cc(OCC(F)F)c(-c5cncnc5)cc4[nH]3)c2N)ccc1Oc1ccccc1F [Example 5-1-261, [5-amino-1-[4-(2-fluorophenoxy)-3-methylphenyl]pyrazol-4-yl]-[5-(2,2-difluoroethoxy)-6-pyrimidin-5-yl-1H-indol-2-yl]methanone] |
| 2.3 nM | 12 nM | 6.4 nM | Cc1cc(Oc2c(F)cccc2F)ncc1-n1ncc(C(=O)c2cc3cc(OCC(F)F)c(-c4cncnc4)cc3[nH]2)c1N [Example 5-1-262, [5-amino-1-[6-(2,6-difluorophenoxy)-4-methylpyridin-3-yl]pyrazol-4-yl]-[5-(2,2-difluoroethoxy)-6-pyrimidin-5-yl-1H-indol-2-yl]methanone] |
| 19 nM | 710 nM | 2600 nM | Cc1cc(-n2ncc(C(=O)c3cc4cc(OCC(F)F)c(-c5cnn(C)c5)cc4[nH]3)c2N)ccc1Oc1ccccc1F [Example 5-1-263, [5-amino-1-[4-(2-fluorophenoxy)-3-methylphenyl]pyrazol-4-yl]-[5-(2,2-difluoroethoxy)-6-(1-methylpyrazol-4-yl)-1H-indol-2-yl]methanone] |
| 5.2 nM | 21 nM | 26 nM | Cc1cc(Oc2c(F)cccc2F)ncc1-n1ncc(C(=O)c2cc3cc(OCC(F)F)c(-c4cnn(C)c4)cc3[nH]2)c1N [Example 5-1-264, [5-amino-1-[6-(2,6-difluorophenoxy)-4-methylpyridin-3-yl]pyrazol-4-yl]-[5-(2,2-difluoroethoxy)-6-(1-methylpyrazol-4-yl)-1H-indol-2-yl]methanone] |
| 5.4 nM | 38 nM | 440 nM | Cc1cc(Oc2ccccc2F)ccc1-n1ncc(C(=O)c2cc3cc(F)c(N4C(=O)[C@@H]5C[C@H](NC(=O)OCC6c7ccccc7-c7ccccc76)CN5C4=O)cc3[nH]2)c1N [Example 5-1-265, 9H-fluoren-9-ylmethyl N-[(6S,7aS)-2-[2-[5-amino-1-[4-(2-fluorophenoxy)-2-methylphenyl]pyrazole-4-carbonyl]-5-fluoro-1H-indol-6-yl]-1,3-dioxo-5,6,7,7a-tetrahydropyrrolo[1,2-c]imidazol-6-yl]carbamate] |
| 2.1 nM | 11 nM | 11 nM | Cc1cc(Oc2ccccc2F)ccc1-n1ncc(C(=O)c2cc3cc(C(C)C)c(N)cc3[nH]2)c1N [Example 5-1-266, [5-amino-1-[4-(2-fluorophenoxy)-2-methylphenyl]pyrazol-4-yl]-(6-amino-5-propan-2-yl-1H-indol-2-yl)methanone] |
| 2 nM | 17 nM | 21 nM | Cc1cc(Oc2ccccc2F)ccc1-n1ncc(C(=O)c2cc3cc(C(C)C)c(NS(C)(=O)=O)cc3[nH]2)c1N [Example 5-1-267, N-[2-[5-amino-1-[4-(2-fluorophenoxy)-2-methylphenyl]pyrazole-4-carbonyl]-5-propan-2-yl-1H-indol-6-yl]methanesulfonamide] |
| 12 nM | 31 nM | 120 nM | Cc1cc2cc(C(=O)c3cnn(-c4ccc(Oc5ccccc5F)cc4C)c3N)[nH]c2cc1N1C(=O)[C@@H]2C[C@H](NC(=O)OCC3c4ccccc4-c4ccccc43)CN2C1=O [Example 5-1-268, 9H-fluoren-9-ylmethyl N-[(6S,7aS)-2-[2-[5-amino-1-[4-(2-fluorophenoxy)-2-methylphenyl]pyrazole-4-carbonyl]-5-methyl-1H-indol-6-yl]-1,3-dioxo-5,6,7,7a-tetrahydropyrrolo[1,2-c]imidazol-6-yl]carbamate] |

Source: patent US10479780B2, “Aminopyrazole derivatives” (Chugai Seiyaku Kabushiki Kaisha, priority 2015, dated 2019)
